Assay results: ChEMBL document CHEMBL3885881, “DrugMatrix”

Species on record: Rattus norvegicus
Assay: DrugMatrix - Regimen: Daily Repeat
Assay type: toxicity, organism-based, Sprague-Dawley
Parameters: regimen Daily Repeat, gender Male, age 6-8 weeks
Details: in vivo, sc, route subcutaneous, […]; for ABSOLUTE BASOPHIL / ABSOLUTE EOSINOPHIL / ABSOLUTE LYMPHOCYTE / ABSOLUTE MONOCYTE / ABSOLUTE SEGMENTED NEUTROPHIL / BASOPHIL / EOSINOPHIL / ERYTHROCYTE COUNT / HEMATOCRIT / HEMOGLOBIN / LEUKOCYTE COUNT / LYMPHOCYTE / MEAN CORPUSCULAR HEMOGLOBIN / MEAN CORPUSCULAR HEMOGLOBIN CONCENTRATION / MEAN CORPUSCULAR VOLUME / MONOCYTE / NEUTROPHIL / NUCLEATED RED BLOOD CELLS / PLATELET COUNT: tissue Blood; for ALANINE AMINOTRANSFERASE / ALBUMIN / ALKALINE PHOSPHATASE / ASPARTATE AMINOTRANSFERASE / BLOOD UREA NITROGEN / CARBON DIOXIDE / CHLORIDE / CHOLESTEROL / CREATINE PHOSPHOKINASE / CREATININE / GLUCOSE / LACTATE DEHYDROGENASE / LIPASE / PHOSPHORUS / POTASSIUM / SODIUM / TOTAL BILIRUBIN / TOTAL PROTEIN / URIC ACID: tissue Plasma
[1] = 15 mg/kg, 72 h, dose level Low, time 3 day
[2] = 15 mg/kg, 120 h, dose level Low, time 5 day
[3] = 750 mg/kg, 72 h, dose level High, time 3 day
[4] = 750 mg/kg, 120 h, dose level High, time 5 day

For CC=CC(=O)N(CC)c1ccccc1C, the “ABSOLUTE BASOPHIL” value [1] was 0 CELLS/uL, the “ABSOLUTE EOSINOPHIL” value [1] was 112 CELLS/uL and the “ABSOLUTE LYMPHOCYTE” value [1] was 10089.67 CELLS/uL. For the same compound, the “ABSOLUTE MONOCYTE” value [1] was 82.33 CELLS/uL, the “ABSOLUTE SEGMENTED NEUTROPHIL” value [1] was 1549.33 CELLS/uL and the BASOPHIL [1] was 0%. For the same compound, the EOSINOPHIL [1] was 1%, the “ERYTHROCYTE COUNT” value [1] was 5.39 x10E6/uL and the HEMATOCRIT [1] was 34.37%. For the same compound, the HEMOGLOBIN [1] was 13.8 G/DL, the “LEUKOCYTE COUNT” value [1] was 11.83 x10E3/uL and the LYMPHOCYTE [1] was 86.33%. The “MEAN CORPUSCULAR HEMOGLOBIN” value [1] was 25.63 pg, the “MEAN CORPUSCULAR HEMOGLOBIN CONCENTRATION” value [1] was 40.2 G/DL and the “MEAN CORPUSCULAR VOLUME” value [1] was 63.7 fL. For the same compound, the MONOCYTE [1] was 0.67%, the NEUTROPHIL [1] was 12% and the “NUCLEATED RED BLOOD CELLS” value [1] was 0.33 /100WBC. The “PLATELET COUNT” value [1] was 1164.67 x10E3/uL, the “ALANINE AMINOTRANSFERASE” value [1] was 60.33 u/L and the ALBUMIN [1] was 4.3 G/DL. The “ALKALINE PHOSPHATASE” value [1] was 309.33 u/L, the “ASPARTATE AMINOTRANSFERASE” value [1] was 90 u/L and the “BLOOD UREA NITROGEN” value [1] was 14.33 mg/dL. The “CARBON DIOXIDE” value [1] was 25.33 mmol/L, the CHLORIDE [1] was 102 MEQ/L and the CHOLESTEROL [1] was 88 mg/dL. For the same compound, the “CREATINE PHOSPHOKINASE” value [1] was 214.67 u/L, the CREATININE [1] was 0.15 mg/dL and the GLUCOSE [1] was 154.33 mg/dL. For the same compound, the “LACTATE DEHYDROGENASE” value [1] was 252.33 u/L, the LIPASE [1] was 9 u/L and the PHOSPHORUS [1] was 13.47 mg/dL. The POTASSIUM [1] was 6.79 MEQ/L, the SODIUM [1] was 146.9 MEQ/L and the “TOTAL BILIRUBIN” value [1] was 0.2 mg/dL. For the same compound, the “TOTAL PROTEIN” value [1] was 6 G/DL, the “URIC ACID” value [1] was 1.6 mg/dL and the “ABSOLUTE BASOPHIL” value [2] was 0 CELLS/uL. For the same compound, the “ABSOLUTE EOSINOPHIL” value [2] was 0 CELLS/uL, the “ABSOLUTE LYMPHOCYTE” value [2] was 9506.33 CELLS/uL and the “ABSOLUTE MONOCYTE” value [2] was 133 CELLS/uL. For the same compound, the “ABSOLUTE SEGMENTED NEUTROPHIL” value [2] was 1294 CELLS/uL, the BASOPHIL [2] was 0% and the EOSINOPHIL [2] was 0%. The “ERYTHROCYTE COUNT” value [2] was 5.45 x10E6/uL, the HEMATOCRIT [2] was 35.03% and the HEMOGLOBIN [2] was 13.53 G/DL. For the same compound, the “LEUKOCYTE COUNT” value [2] was 10.93 x10E3/uL, the LYMPHOCYTE [2] was 87% and the “MEAN CORPUSCULAR HEMOGLOBIN” value [2] was 24.9 pg. For the same compound, the “MEAN CORPUSCULAR HEMOGLOBIN CONCENTRATION” value [2] was 38.67 G/DL, the “MEAN CORPUSCULAR VOLUME” value [2] was 64.33 fL and the MONOCYTE [2] was 1.33%. For the same compound, the NEUTROPHIL [2] was 11.67%, the “NUCLEATED RED BLOOD CELLS” value [2] was 2 /100WBC and the “PLATELET COUNT” value [2] was 1237.33 x10E3/uL. For the same compound, the “ALANINE AMINOTRANSFERASE” value [2] was 56 u/L, the ALBUMIN [2] was 4.23 G/DL and the “ALKALINE PHOSPHATASE” value [2] was 398.67 u/L. For the same compound, the “ASPARTATE AMINOTRANSFERASE” value [2] was 78 u/L, the “BLOOD UREA NITROGEN” value [2] was 15 mg/dL and the “CARBON DIOXIDE” value [2] was 27 mmol/L. The CHLORIDE [2] was 102.33 MEQ/L, the CHOLESTEROL [2] was 73.67 mg/dL and the “CREATINE PHOSPHOKINASE” value [2] was 195.33 u/L. The CREATININE [2] was 0.19 mg/dL, the GLUCOSE [2] was 148.33 mg/dL and the “LACTATE DEHYDROGENASE” value [2] was 106 u/L. The LIPASE [2] was 8.33 u/L, the PHOSPHORUS [2] was 12.73 mg/dL and the POTASSIUM [2] was 6.57 MEQ/L. The SODIUM [2] was 147 MEQ/L, the “TOTAL BILIRUBIN” value [2] was 0.2 mg/dL and the “TOTAL PROTEIN” value [2] was 6.1 G/DL. The “URIC ACID” value [2] was 1.2 mg/dL, the “ABSOLUTE BASOPHIL” value [3] was 0 CELLS/uL and the “ABSOLUTE EOSINOPHIL” value [3] was 39 CELLS/uL. The “ABSOLUTE LYMPHOCYTE” value [3] was 11981 CELLS/uL, the “ABSOLUTE MONOCYTE” value [3] was 301 CELLS/uL and the “ABSOLUTE SEGMENTED NEUTROPHIL” value [3] was 1579 CELLS/uL. The BASOPHIL [3] was 0%, the EOSINOPHIL [3] was 0.33% and the “ERYTHROCYTE COUNT” value [3] was 5.38 x10E6/uL. For the same compound, the HEMATOCRIT [3] was 34.23%, the HEMOGLOBIN [3] was 13.3 G/DL and the “LEUKOCYTE COUNT” value [3] was 13.9 x10E3/uL. For the same compound, the LYMPHOCYTE [3] was 85.67%, the “MEAN CORPUSCULAR HEMOGLOBIN” value [3] was 24.7 pg and the “MEAN CORPUSCULAR HEMOGLOBIN CONCENTRATION” value [3] was 38.83 G/DL. The “MEAN CORPUSCULAR VOLUME” value [3] was 63.7 fL, the MONOCYTE [3] was 2.33% and the NEUTROPHIL [3] was 11.67%. For the same compound, the “NUCLEATED RED BLOOD CELLS” value [3] was 1 /100WBC, the “PLATELET COUNT” value [3] was 1269.67 x10E3/uL and the “ALANINE AMINOTRANSFERASE” value [3] was 53.33 u/L. The ALBUMIN [3] was 3.63 G/DL, the “ALKALINE PHOSPHATASE” value [3] was 412 u/L and the “ASPARTATE AMINOTRANSFERASE” value [3] was 76.33 u/L. For the same compound, the “BLOOD UREA NITROGEN” value [3] was 14.33 mg/dL, the “CARBON DIOXIDE” value [3] was 26 mmol/L and the CHLORIDE [3] was 101.33 MEQ/L. The CHOLESTEROL [3] was 93 mg/dL, the “CREATINE PHOSPHOKINASE” value [3] was 193.67 u/L and the CREATININE [3] was 0.18 mg/dL. The GLUCOSE [3] was 142.67 mg/dL, the “LACTATE DEHYDROGENASE” value [3] was 154 u/L and the LIPASE [3] was 10.67 u/L. It also gave a PHOSPHORUS [3] of 12.17 mg/dL, a POTASSIUM [3] of 6.36 MEQ/L and an SODIUM [3] of 144.1 MEQ/L. For the same compound, the “TOTAL BILIRUBIN” value [3] was 0.17 mg/dL, the “TOTAL PROTEIN” value [3] was 5.57 G/DL and the “URIC ACID” value [3] was 1.23 mg/dL. For the same compound, the “ABSOLUTE BASOPHIL” value [4] was 0 CELLS/uL, the “ABSOLUTE EOSINOPHIL” value [4] was 100.67 CELLS/uL and the “ABSOLUTE LYMPHOCYTE” value [4] was 12538 CELLS/uL. The “ABSOLUTE MONOCYTE” value [4] was 97.33 CELLS/uL, the “ABSOLUTE SEGMENTED NEUTROPHIL” value [4] was 1764 CELLS/uL and the BASOPHIL [4] was 0%. For the same compound, the EOSINOPHIL [4] was 0.67%, the “ERYTHROCYTE COUNT” value [4] was 4.84 x10E6/uL and the HEMATOCRIT [4] was 29.03%. The HEMOGLOBIN [4] was 11.63 G/DL, the “LEUKOCYTE COUNT” value [4] was 14.5 x10E3/uL and the LYMPHOCYTE [4] was 86.67%. For the same compound, the “MEAN CORPUSCULAR HEMOGLOBIN” value [4] was 24.07 pg, the “MEAN CORPUSCULAR HEMOGLOBIN CONCENTRATION” value [4] was 40.13 G/DL and the “MEAN CORPUSCULAR VOLUME” value [4] was 60.03 fL. The MONOCYTE [4] was 0.67%, the NEUTROPHIL [4] was 12% and the “NUCLEATED RED BLOOD CELLS” value [4] was 0 /100WBC. The “PLATELET COUNT” value [4] was 1313.67 x10E3/uL, the “ALANINE AMINOTRANSFERASE” value [4] was 73.67 u/L and the ALBUMIN [4] was 3.63 G/DL. For the same compound, the “ALKALINE PHOSPHATASE” value [4] was 318 u/L, the “ASPARTATE AMINOTRANSFERASE” value [4] was 113.67 u/L and the “BLOOD UREA NITROGEN” value [4] was 18 mg/dL. For the same compound, the “CARBON DIOXIDE” value [4] was 29.33 mmol/L, the CHLORIDE [4] was 98.67 MEQ/L and the CHOLESTEROL [4] was 97.33 mg/dL. The “CREATINE PHOSPHOKINASE” value [4] was 403.33 u/L, the CREATININE [4] was 0.19 mg/dL and the GLUCOSE [4] was 144 mg/dL. For the same compound, the “LACTATE DEHYDROGENASE” value [4] was 612.33 u/L, the LIPASE [4] was 10.67 u/L and the PHOSPHORUS [4] was 13.33 mg/dL. For the same compound, the POTASSIUM [4] was 5 MEQ/L, the SODIUM [4] was 136.53 MEQ/L and the “TOTAL BILIRUBIN” value [4] was 0.1 mg/dL. For the same compound, the “TOTAL PROTEIN” value [4] was 5.57 G/DL and the “URIC ACID” value [4] was 1.7 mg/dL.
